Test results published in publication PMC6315541, “Nile Tilapia Derived Antimicrobial Peptide TP4 Exerts Antineoplastic Activity Through Microtubule Disruption” (Marine Drugs, 2018).
Entries after “also recorded” stand apart in the source; their conditions may differ.

How the values were obtained:
[1] = test system: microtubule network (α-Tubulin) in A549 cells; assay: Immunocytochemistry of microtubule network and peptide uptake in A549 cells; format: cell-based, human; details: A549 cells; TP4 6.71 μM, 3 h; FITC-labeled mutants; Figure 6B
Protocol: To examine whether TP4 may affect microtubule dynamics, A549 cells were treated with TP4, and cytoskeletal elements were analyzed by immunocytochemistry (ICC). […] We then asked whether TP4 treatment may influence tubulin protein levels by performing Western blots on lysates from A549 cells that had been treated with vehicle or TP4. […] We next conducted a microtubule regrowth assay to further address whether TP4 may disrupt microtubule polymerization. TP4 was applied to A549 cells that had been treated with or without Nocodazole (20 μM) treatment for 6 h, which completely depolymerizes the microtubule network. The repolymerization of microtubules was then initialized by the addition of fresh recovery medium, and regrowth was analyzed by ICC.
While the reduced toxicity may result from impaired binding to tubulin, it is also possible that such effects may be caused by conformational changes in the TP4 mutants, see Supplementary Figure S1C,D, which prevent intracellular penetration. To test this possibility, ICC was conducted to evaluate the cellular localization and the effects on microtubules. […] For both Gly and Ala substitution mutants, FITC-labeled TP4 mutants were able to be taken up intracellularly, see Figure 6B, panels MT-1 to MT-6. However, the microtubule network was only affected in MT-1- and MT-4-treated cells and not the other mutant-treated groups, as shown in Figure 6B.
(§1) Figure 6 Loss of cancer-killing ability in TP4 mutants. (A) Cell viability in A549 cells was determined by the adenosine triphosphate (ATP) assay following treatment with varying doses of TP4 and TP4 mutants for 24 h. Multiple wells were analyzed for each assay. Results represent the mean ± SD. Statistical comparisons between groups were performed using two-way ANOVA: a, not significant; b, p < 0.05; d, p < 0.001. Statistical analyses are shown in Supplementary Table S1. (B) Cells were stained for TP4 (WT panel), FITC (MT-1 to MT-6 panels), α-Tubulin, and F-actin. Hoechst33342 was used for nuclei staining. Boxed regions are magnified in the furthest right panels. […] Bar: 20 μm.
Cells were stained with TP4 (1:1000), FITC (1:500, ThermoFisher Scientific, clone 1F8-1E4), α-Tubulin (1:500), and appropriate Alexa Flour conjugated secondary antibody (1:500; ThermoFisher Scientific, Eugene, OR, USA). Hochest33342 was used for nuclear staining, and Alexa Fluor 647-conjugated phalloidin (1:200, Thermo Fisher Scientific, Eugene, OR, USA) was used to stain F-actin. For the confocal microscopic analysis, samples were mounted with fluorescent mounting medium (ProLong Gold Antifade Reagent, ThermoFisher Scientific, Eugene, OR, USA) and images were obtained with a FV3000 laser-scanning confocal microscope (Olympus), using a 60 × objective lens (Plapon 60 × OSC2, N.A. 1.4, oil) with the 4′,6-diamidino-2-phenylindole (DAPI) ([…]), green fluorescent protein (GFP) (EX 470, EM 525 for enhanced GFP (EGFP)), and Cy5 ([…]) emission filters. FV31S software (Olympus, Tokyo, Japan) was used for image acquisition.

A549 cells = assay: Cell viability (CellTiter-Glo ATP assay) in A549 cells; format: cell-based, human; details: 24 h; for relative ATP levels (cell viability): CellTiter-Glo ATP assay, luminescence, mean ± SD of three independent assays, n ≥ 5 wells per dose; for cytotoxicity to A549 cells (in words): doses 3.35-20.12 µM, ATP assay, Figure 6A
Protocol: as §1
The A549 cell line (Bioresource Collection and Research Center (BCRC) 60074) was purchased from the BCRC and cultured according to BCRC recommendations. For the cell viability and transfection assay, 4–5 × 10^3 cells were seeded into the wells of a 96-well plate and cultured overnight. Cells were then treated according to the indicated doses and times. Cell viability was quantified using the CellTiter-Glo® Luminescent Cell Viability Assay kit (ATP assay) (Madison, WI, USA) as previously described. The luminescent signal was measured using a photometer (SpectraMax® i3, Molecular Devices, Wals, Austria).
For the multi-well based assay, cells were plated at least in quadruplicate. Data were collected from independently repeated experiments (N ≥ 3) and were analyzed by Prism5 software (GraphPad Inc., La Jolla, CA, USA). Statistical significance was determined by a two-tailed Student’s t-test or one-way/two-way analysis of variance (ANOVA) with a Bonferroni post hoc test. Differences were considered statistically significant at p < 0.05. […]
Supplementary Table S1. Cellular toxicit y of TP 4 to A549 cells was evaluated b y cell viability. Results of statis tical tests on data in Figu re 6A are shown. Multiple wells were anal yzed for each ex periment (n ≥ 5 wells per do se). Results represent the mean ± SD from three independent assays. Statistical comparisons between mock versus TP4 treatment groups were performed using two -way ANOVA anal ysis with Bonferroni post-hoc test: a, not signi ficant; b, P < 0.05; c, P < 0.01; d, P < 0.001. […]
(A-G) Th e helical projection plot and s tructural model o f TP4 (A) and TP4 variants (MT-1 to MT-6, B-G ). The helical proj ecti on was produced b y an online helical wheel projection program (http://rzlab.ucr.edu/scripts/wheel/wheel.cgi). Amino acid residues are numbered and each amino acid is connected with lines to indicate its relative position along the helix. The hydrophobic residues are shown as diamonds ; h ydrophilic residues are circles. Residues with negative charge are shown as trian gles and positively charged residues are pentagons. Hydrophobicity is color coded. The

Substance | effect on microtubule network (α-Tubulin ICC) [1] | relative ATP levels (cell viability) (A549 cells; 3.35 µM) | relative ATP levels (cell viability) (A549 cells; 5.03 µM) | relative ATP levels (cell viability) (A549 cells; 6.71 µM) | relative ATP levels (cell viability) (A549 cells; 20.12 µM) | cytotoxicity to A549 cells (in words) (A549 cells)
MT-4: TP4 mutant, Phe1 to Ala (AIHHIIGGLFSAGKAIHRLIRRRRR) | affected; also recorded: microtubule abnormalities were observed | 0.454±0.169 | 0.241±0.094 | 0.070±0.045 | 0.001±0.007 | strongly cytotoxic
MT-1: TP4 mutant, Phe1 to Gly (GIHHIIGGLFSAGKAIHRLIRRRRR) | affected; also recorded: microtubule abnormalities were observed | 0.931±0.160 | 1.044±0.280 | 0.852 ± 0.145 | 0.003±0.001 | decreased cytotoxicity
